# Values of other authors as cited in EP2545940A9, “Parenteral compositions” (hameln rds gmbh, priority 2011, dated 2013).
# Like-named read-outs stand apart in the source and are kept apart here.
# Details: 25°C
smiles,measurement,setting,value
"C[C@H](/C=C/[C@H](C)C(C)(C)O)[C@H]1CC[C@H]2/C(=C/C=C3C[C@@H](O)C[C@H](O)C3)CCC[C@]12C [Paracalcin, (1 R, 3R, 7E, 17β) -17 - [(1 R, 2E, 4S)-5-Hydroxy-1 ,4,5-trimethylhex-2-en-1-yl] -9,10-secoestra-5,7-Dien-1 ,3-diol]",Paracalcin,"cosolvent: Ethanol 0.00, Propylene glycol 0.302, Water 0.698",0.58 µg/mL
same,Paracalcin,"cosolvent: Ethanol 0.00, Propylene glycol 0.506, Water 0.494",14.21 µg/mL
same,Paracalcin,"cosolvent: Ethanol 0.100, Propylene glycol 0.257, Water 0.643",2.88 µg/mL
same,Paracalcin,"cosolvent: Ethanol 0.199, Propylene glycol 0.207, Water 0.594",15.94 µg/mL
same,Paracalcin,"cosolvent: Ethanol 0.201, Propylene glycol 0.308, Water 0.491",72.90 µg/mL
same,Paracalcin,"cosolvent: Ethanol 0.299, Propylene glycol 0.00, Water 0.701",6.82 µg/mL
same,Paracalcin,"cosolvent: Ethanol 0.347, Propylene glycol 0.102, Water 0.551",119.37 µg/mL
same,Paracalcin,"cosolvent: Ethanol 0.498, Propylene glycol 0.00, Water 0.502",601.63 µg/mL
